Tested on in one data set: not given
Experiment: not given
Details: not given
One may read the melting point as the temperature of the solid-liquid transition. Take `CS(=O)(=O)c1ccc(Nc2cncc(-c3c(C(F)(F)F)nc4ccccn34)n2)cc1` [compound 68, N-[4-(methylsulfonyl)phenyl]-6-[2-(trifluoromethyl)imidazo[1,2-a]pyridin-3-yl]pyrazin-2-amine]: the melting point lay within 256 to 258 °C.

The next data set relates to Bmi-1 protein. Put plainly: Sandwich ELISA Assay (Bmi-1 protein level in HT-1080 cells after compound treatment). The format is cell-based. As to conditions: Table 1, Bmi-1 sandwich ELISA, read-out: ELISA EC50 value for Bmi-1 protein. The essentials: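 HT-1080 cells exposed to compounds for 40–48 h at 37 °C (0.5% DMSO final), then lysed. Bmi-1 in lysates measured by sandwich ELISA (mouse monoclonal capture, rabbit anti-Bmi-1 detection, HRP anti-rabbit, TMB), read at OD450 with OD570 reference against a recombinant Bmi-1 standard curve (0–8000 pg/mL).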
Broadly, the EC50 is the concentration at which the effect is half-maximal. `CCc1nn2ccccc2c1-c1cncc(Nc2ccc(Cl)cc2)n1` [compound 629, N-(4-chlorophenyl)-6-(2-ethylpyrazolo[1,5-a]pyridin-3-yl)pyrazin-2-amine]: the EC50 lay within 1 to 10 nM.

Regarding `CCc1nn2ccccc2c1-c1cncc(Nc2ccc(F)cc2)n1` [compound 630, 6-(2-ethylpyrazolo[1,5-a]pyridin-3-yl)-N-(4-fluorophenyl)pyrazin-2-amine], the EC50 is 100 to 3000 nM.

Regarding `CCc1nn2ccccc2c1-c1cncc(Nc2ccccc2)n1` [compound 631, 6-(2-ethylpyrazolo[1,5-a]pyridin-3-yl)-N-phenylpyrazin-2-amine], the EC50 is 100 to 3000 nM.

With `Cc1ccc(Nc2cc(N)cc(-n3c(C)nc4ccccc43)n2)cc1` [compound 632, 6-(2-methyl-1H-benzimidazol-1-yl)-N^2-(4-methylphenyl)pyridine-2,4-diamine], the EC50 lay within 1 to 10 nM.

Take `Cc1nc2ccccc2n1-c1cc(N)cc(Nc2ccc(Cl)cc2)n1` [compound 633, N^2-(4-chlorophenyl)-6-(2-methyl-1H-benzimidazol-1-yl)pyridine-2,4-diamine]: the EC50 is 10 to 100 nM.

Regarding `CCc1nn2ccccc2c1-c1cncc(Nc2cccc(OC)c2)n1` [compound 640, 6-(2-ethylpyrazolo[1,5-a]pyridin-3-yl)-N-(3-methoxyphenyl)pyrazin-2-amine], the EC50 is 10 to 100 nM.

Consider `CCc1nn2ccccc2c1-c1cncc(Nc2ccc(C#N)cc2)n1` [compound 641, 4-{[6-(2-ethylpyrazolo[1,5-a]pyridin-3-yl)pyrazin-2-yl]amino}benzonitrile], for which the EC50 was in the range of 10 to 100 nM.

For `CCc1nn2ccccc2c1-c1cncc(Nc2ccc(C(=O)OC)cc2)n1` [compound 642, methyl 4-{[6-(2-ethylpyrazolo[1,5-a]pyridin-3-yl)pyrazin-2-yl]amino}benzoate], the EC50 was in the range of 10 to 100 nM.

Turning to `CCc1nn2ccccc2c1-c1cncc(Nc2cccc(Cl)c2)n1` [compound 643, N-(3-chlorophenyl)-6-(2-ethylpyrazolo[1,5-a]pyridin-3-yl)pyrazin-2-amine], the EC50 lay in the range of 100 to 3000 nM.

`Cc1nc2ccccc2n1-c1cncc(Nc2ccc(C(F)(F)F)cc2F)n1` [compound 644, N-[2-fluoro-4-(trifluoromethyl)phenyl]-6-(2-methyl-1H-benzimidazol-1-yl)pyrazin-2-amine]: the half-maximal effective concentration (EC50) was 10 to 100 nM.

In the case of `Cc1nc2ccccc2n1-c1cncc(Nc2cc(F)c(C(F)(F)F)c(F)c2)n1` [compound 645, N-[3,5-difluoro-4-(trifluoromethyl)phenyl]-6-(2-methyl-1H-benzimidazol-1-yl)pyrazin-2-amine], the EC50 lay in the range of 10 to 100 nM.

As to `Cc1nc2ccc(F)cn2c1-c1cc(C#N)cc(Nc2cccc(F)c2)n1` [compound 651, 2-(6-fluoro-2-methylimidazo[1,2-a]pyridin-3-yl)-6-[(3-fluorophenyl)amino}pyridine-4-carbonitrile], the EC50 lay in the range of 100 to 3000 nM.

For `Cc1nc2cc(F)c(F)cc2n1-c1cc(N)cc(Nc2ccc(OC(F)(F)F)cc2)n1` [compound 652, 6-(5,6-difluoro-2-methyl-1H-benzimidazol-1-yl)-N^2-[4-(trifluoromethoxy)phenyl]pyridine-2,4-diamine], the EC50 fell in the range of 10 to 100 nM.

With `Cc1nc2ccc(F)cc2n1-c1cncc(Nc2ccc(Cl)c(F)c2)n1` [compound 654, N-(4-chloro-3-fluorophenyl)-6-(6-fluoro-2-methyl-1H-benzimidazol-1-yl)pyrazin-2-amine], the EC50 fell in the range of 10 to 100 nM.

Take `COc1ccc(Nc2cc(C)cc(-n3c(C)nc4ccccc43)n2)cc1` [compound 655, N-(4-methoxyphenyl)-4-methyl-6-(2-methyl-1H-benzimidazol-1-yl)pyridin-2-amine]: the EC50 is 100 to 3000 nM.

Turning to `COc1ccc(Nc2cc(N)cc(-n3c(C)nc4cc(F)c(F)cc43)n2)cc1` [compound 656, 6-(5,6-difluoro-2-methyl-1H-benzimidazol-1-yl)-N^2-(4-methoxyphenyl)pyridine-2,4-diamine], the EC50 lay within 10 to 100 nM.

For the molecule `Cc1ccc(Nc2cc(N)cc(-n3c(C)nc4cc(F)c(F)cc43)n2)cc1` [compound 657, 6-(5,6-difluoro-2-methyl-1H-benzimidazol-1-yl)-N^2-(4-methylphenyl)pyridine-2,4-diamine], the EC50 lay in the range of 10 to 100 nM.

Turning to `Cc1nc2cc(F)c(F)cc2n1-c1cc(N)cc(Nc2ccc(Cl)cc2)n1` [compound 658, N^2-(4-chlorophenyl)-6-(5,6-difluoro-2-methyl-1H-benzimidazol-1-yl)pyridine-2,4-diamine], the EC50 fell in the range of 10 to 100 nM.

Consider `Cc1nc2ccccc2n1-c1cncc(Nc2ccc(C(C)(C)C)cc2)n1` [compound 659, N-(4-tert-butylphenyl)-6-(2-methyl-1H-benzimidazol-1-yl)pyrazin-2-amine], for which the EC50 lay in the range of 100 to 3000 nM.

For `Cc1nc2ccccc2n1-c1cncc(Nc2ccc(OC(C)C)cc2)n1` [compound 660, 6-(2-methyl-1H-benzimidazol-1-yl)-N-[4-(propan-2-yloxy)phenyl]pyrazin-2-amine], the EC50 fell in the range of 10 to 100 nM.

As to `Cc1nc2ccccc2n1-c1cncc(Nc2ccc(C(C)C)cc2)n1` [compound 661, 6-(2-methyl-1H-benzimidazol-1-yl)-N-[4-(propan-2-yl)phenyl]pyrazin-2-amine], the EC50 fell in the range of 10 to 100 nM.

Turning to `CCc1ccc(Nc2cncc(-n3c(C)nc4ccccc43)n2)cc1` [compound 662, N-(4-ethylphenyl)-6-(2-methyl-1H-benzimidazol-1-yl)pyrazin-2-amine], the EC50 is 100 to 3000 nM.

With `CCCc1ccc(Nc2cncc(-n3c(C)nc4ccccc43)n2)cc1` [compound 663, 6-(2-methyl-1H-benzimidazol-1-yl)-N-(4-propylphenyl)pyrazin-2-amine], the EC50 is 10 to 100 nM.

For `CCOc1ccc(Nc2cncc(-n3c(C)nc4ccccc43)n2)cc1` [compound 664, N-(4-ethoxyphenyl)-6-(2-methyl-1H-benzimidazol-1-yl)pyrazin-2-amine], the EC50 lay within 100 to 3000 nM.

As to `C#Cc1ccc(Nc2cncc(-n3c(C)nc4ccccc43)n2)cc1` [compound 665, N-(4-ethynylphenyl)-6-(2-methyl-1H-benzimidazol-1-yl)pyrazin-2-amine], the EC50 is 100 to 3000 nM.

Regarding `C=Cc1ccc(Nc2cncc(-n3c(C)nc4ccccc43)n2)cc1` [compound 666, N-(4-ethenylphenyl)-6-(2-methyl-1H-benzimidazol-1-yl)pyrazin-2-amine], the EC50 was in the range of 100 to 3000 nM.

As to `Fc1ccc2nc(C(F)(F)F)c(-c3cncc(Nc4ccccc4)n3)n2c1` [compound 667, 6-[6-fluoro-2-(trifluoromethyl)imidazo[1,2-a]pyridin-3-yl]-N-phenylpyrazin-2-amine], the EC50 was 100 to 3000 nM.

For `N#Cc1ccc(Nc2cncc(-c3c(C(F)(F)F)nc4ccc(F)cn34)n2)cc1` [compound 668, 4-({6-[6-fluoro-2-(trifluoromethyl)imidazo[1,2-a]pyridin-3-yl]pyrazin-2-yl}amino)benzonitrile], the EC50 was in the range of 100 to 3000 nM.

On to `Fc1ccc(Nc2cncc(-c3c(C(F)(F)F)nc4ccc(F)cn34)n2)cc1` [compound 669, N-(4-fluorophenyl)-6-[6-fluoro-2-(trifluoromethyl)imidazo[1,2-a]pyridin-3-yl]pyrazin-2-amine], for which the 50% effective concentration (EC50) lay in the range of 100 to 3000 nM.

Consider `Fc1ccc2nc(C(F)(F)F)c(-c3cncc(Nc4ccc(Cl)cc4)n3)n2c1` [compound 670, N-(4-chlorophenyl)-6-[6-fluoro-2-(trifluoromethyl)imidazo[1,2-a]pyridin-3-yl]pyrazin-2-amine], for which the EC50 fell in the range of 100 to 3000 nM.

With `Cc1ccc(Nc2cncc(-c3c(C(F)(F)F)nc4ccc(F)cn34)n2)cc1` [compound 671, 6-[6-fluoro-2-(trifluoromethyl)imidazo[1,2-a]pyridin-3-yl]-N-(4-methylphenyl)pyrazin-2-amine], the EC50 lay in the range of 100 to 3000 nM.

For the molecule `COc1ccc2nc(C)c(-c3cc(C#N)cc(Nc4ccc(C)cc4)n3)n2c1` [compound 673, 2-(6-methoxy-2-methylimidazo[1,2-a]pyridin-3-yl)-6-[(4-methylphenyl)amino]pyridine-4-carbonitrile], the concentration for a half-maximal effect (EC50) was 100 to 3000 nM.

Take `COc1ccc2nc(C)c(-c3cc(C#N)cc(Nc4ccc(F)cc4)n3)n2c1` [compound 674, 2-[(4-fluorophenyl)amino]-6-(6-methoxy-2-methylimidazo[1,2-a]pyridin-3-yl)pyridine-4-carbonitrile]: the EC50 was in the range of 100 to 3000 nM.

On to `COc1ccc2nc(C)c(-c3cc(C#N)cc(Nc4ccccc4)n3)n2c1` [compound 675, 2-(6-methoxy-2-methylimidazo[1,2-a]pyridin-3-yl)-6-(phenylamino)pyridine-4-carbonitrile], for which the EC50 fell in the range of 10 to 100 nM.

Take `COc1ccc2nc(C)c(-c3cc(C#N)cc(Nc4ccc(Cl)cc4)n3)n2c1` [compound 676, 2-[(4-chlorophenyl)amino]-6-(6-methoxy-2-methylimidazo[1,2-a]pyridin-3-yl)pyridine-4-carbonitrile]: the EC50 lay within 10 to 100 nM.

In the case of `COc1ccc2nc(C)c(-c3cc(C#N)cc(Nc4ccc(OC(F)F)cc4)n3)n2c1` [compound 677, 2-{[4-(difluoromethoxy)phenyl]amino}-6-(6-methoxy-2-methylimidazo[1,2-a]pyridin-3-yl)pyridine-4-carbonitrile], the EC50 was 100 to 3000 nM.

As to `Cc1nc2cc(F)c(F)cc2n1-c1cncc(Nc2ccc(C(F)(F)F)cc2)n1` [compound 683, 6-(5,6-difluoro-2-methyl-1H-benzimidazol-1-yl)-N-[4-(trifluoromethyl)phenyl]pyrazin-2-amine], the EC50 lay within 10 to 100 nM.

Staying with this data set, now noted: read-out: ELISA EC50 value for Bmi-1 protein, Table 1, Bmi-1 sandwich ELISA.
For the molecule `CS(=O)(=O)c1ccc(Nc2cncc(-c3c(C(F)(F)F)nc4ccccn34)n2)cc1` [compound 68, N-[4-(methylsulfonyl)phenyl]-6-[2-(trifluoromethyl)imidazo[1,2-a]pyridin-3-yl]pyrazin-2-amine], the EC50 was in the range of 100 to 3000 nM.

Values taken from patent US10584115B2, “Substituted pyridine and pyrazine BMI-1 inhibitors” (PTC Therapeutics, Inc., priority 2013, dated 2020).
